Laboratory results: US9963462B2 (priority 2015, dated 2018)

How the values were obtained:
[1] = tested on: BH4 levels in SK-N-BE (2) cells; test: SKN-N-BE (2) cellular assay, BH4 levels by LC-MS; type: cell-based; conditions: Homo sapiens, SKNBE2, read-out: SK-N-BE(2) IC50, SK-N-BE (2) cells, BH4 levels by LC-MS
Description: SKN-N-BE(2) Cellular Assay: SK-N-BE (2) cells were seeded in sterile, 96-well plates and incubated for 12-24 hours at 37° C. with 5% CO2 supply. Media was removed and fresh DMEM/F-12 media (containing Glutamine & Pen/Strep but no FBS) was added. Compounds (at different concentrations) were added to different wells. The plates were then incubated for 6-48 hours at 37° C. with 5% CO2 supply. Plates were then centrifuged and the supernatant was removed. The plates were then optionally washed once with PBS. They were then sealed and stored at −80° C. or immediately used. The cells were lysed and the level of BH4 was assessed by LC-MS.
Compounds were assayed for SPR inhibitory activity using a SKN-N-BE (2) cellular assay according to the following procedure. SK-N-BE (2) cells were seeded in sterile, 96-well plates and incubated for 12-24 hours at 37° C. with 5% CO2 supply. Media was removed and fresh DMEM/F-12 media (containing Glutamine & Pen/Strep but no FBS) was added. Compounds (at different concentrations) were added to different wells. The plates were then incubated for 6-48 hours at 37° C. with 5% CO2 supply. Plates were then centrifuged and the supernatant was removed. The plates were then optionally washed once with PBS. They were then sealed and stored at −80° C. or immediately used in the next step. The cells were lysed and the levels of BH4 were assessed by LC-MS.

[2] = tested on: BH4 production in human peripheral blood mononuclear cells (PBMCs); test: hPBMC assay, inhibition of BH4 production by LC-MS (anti-CD3/anti-CD28 stimulated); type: cell-based; conditions: PBMC, read-out: hPBMC IC50
[3] = target: SNAP-hSPR (sepiapterin reductase, SPR) (Homo sapiens, UniProt P35270); test: biochemical; type: binding; conditions: terbium labelled SNAP-hSPR / SSZ labelled SNAP-EGFP; read-out: hTR-FRET IC50
SNAP-hSPR (sepiapterin reductase, SPR), sequence (P35270 whole entry): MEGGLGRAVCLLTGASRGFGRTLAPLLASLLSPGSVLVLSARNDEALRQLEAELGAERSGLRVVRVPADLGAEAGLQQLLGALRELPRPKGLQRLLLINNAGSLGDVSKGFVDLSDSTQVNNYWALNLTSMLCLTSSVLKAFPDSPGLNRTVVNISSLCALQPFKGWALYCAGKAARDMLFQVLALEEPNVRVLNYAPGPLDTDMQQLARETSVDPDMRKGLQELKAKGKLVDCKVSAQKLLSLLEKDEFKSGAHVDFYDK
Description: TR-FRET Assay: A TR-FRET (homogeneous, time-resolved, fluorescence resonance energy transfer) assay was used to assess activity of compounds following standard assay conditions. […] Compounds were screened at different concentrations and IC50 values calculated.
Terbium labelled SNAP-hSPR and SSZ (sulfasalazine) labelled SNAP-EGFP were used as the protein pair in this assay. Compounds were screened at different concentrations, and 1050 and Kd values calculated.

[4] = tested on: neuropathic pain-like behaviors after spared nerve injury (SNI); test: Behavioral pharmacology model: spared nerve injury (SNI), paw withdrawal threshold, von Frey filaments; type: in vivo; conditions: rat, oral gavage, mechanical endpoint, 4 hrs
Description: (§1) Behavioral Pharmacology Model: Compounds were administered by oral gavage to rats that had undergone one of two nerve injury surgeries: spared nerve injury to injure two of the three peripheral branches of the sciatic nerve or chronic constriction injury of the sciatic nerve. Paw withdrawal thresholds to mechanical stimulation using calibrated von Frey filaments were used as measurement of neuropathic pain-like behaviors.
(§2) Compounds were tested in standard behavioral pharmacology models for pain in rats as described in the literature (see, e.g., Latremoliere et al., Neuron, 86:1393-1406 (2015); Tegeder et al., Nature Medicine, 12:1269-1277 (2006)). Compounds were administered by oral gavage to rats that had undergone one of two nerve injury surgeries: spared nerve injury to injure two of the three peripheral branches of the sciatic nerve (SNI, Decosterd et al., Pain, 87:149-158 (2000)) or chronic constriction injury of the sciatic nerve (CCI, Bennett et al., Pain, 33:87-107 (1988)). Paw withdrawal thresholds to mechanical stimulation using calibrated von Frey filaments were used as measurement of neuropathic pain-like behaviors.

[5] = tested on: neuropathic pain-like behaviors after chronic constriction injury (CCI); test: Behavioral pharmacology model: chronic constriction injury of the sciatic nerve (CCI), paw withdrawal threshold, von Frey filaments; type: in vivo; conditions: rat, oral gavage, mechanical endpoint, 4 hrs
Description: as §1, §2

Compound	IC50 [1]	IC50 [2]	IC50 [3]	Behavior Significant effect ([4]; 20 mpk QD 3 days)	Behavior Significant effect ([5]; 10 mpk QD 3 days)	Behavior Significant effect ([5]; 9.5 mpk QD 3 days)	Behavior Significant effect ([4]; 15 mpk QD 3 days)	Behavior Significant effect ([4]; 10 mpk QD 3 days)
Cc1c(C(=O)N2CCN(CC(F)(F)F)CC2)nnn1-c1nn2cccc2c(=O)[nH]1 [Q-1007]	500 nM	120 nM	1 nM	–	–	–	–	–
Cc1c(C(=O)N2CCN(CC3CCC3)[C@H](C)C2)cnn1-c1nn2cccc2c(=O)[nH]1 [Q-1020]	300 nM	200 nM	2 nM	–	–	–	–	–
Cc1c(C(=O)N2CCN(C3CC3)CC2)cnn1-c1nc2c(c(=O)[nH]1)CCC2 [Q-1022]	100 nM	41 nM	2 nM	–	–	–	–	–
Cc1c(C(=O)N2CC3(C2)CC(F)(F)C3)nnn1-c1nn2cccc2c(=O)[nH]1 [Q-1024]	300 nM	56 nM	1 nM	–	–	–	–	–
Cc1c(C(=O)N2C[C@@H]3C[C@H]2CN3Cc2ccccc2)cnn1-c1nn2cccc2c(=O)[nH]1 [Q-1033]	400 nM	260 nM	8 nM	–	–	–	–	–
Cc1c(C(=O)N2CC=C(C3(C#N)CC3)CC2)cnn1-c1nn2cccc2c(=O)[nH]1 [Q-1034]	200 nM	160 nM	2 nM	–	–	–	–	–
Cc1c(C(=O)N2CC(F)(c3ccccc3)C2)cnn1-c1nn2cccc2c(=O)[nH]1 [Q-1038]	300 nM	340 nM	2 nM	–	–	–	–	–
CC[C@H](C#N)C1CCN(C(=O)c2cnn(-c3nc4c(c(=O)[nH]3)CCC4)c2C)CC1 [Q-1041]	46 nM	28 nM	1 nM	–	–	–	–	–
Cc1c(C(=O)N2CCC(C(=O)N3CCCC3)(C(F)(F)F)CC2)cnn1-c1nn2cccc2c(=O)[nH]1 [Q-1046]	100 nM	83 nM	1 nM	–	–	–	–	–
CCC(C#N)C1(F)CCN(C(=O)c2cnn(-c3nn4cccc4c(=O)[nH]3)c2C)CC1 (stereo not drawn) [Q-1047]	200 nM	66 nM	1 nM	–	–	–	–	–
Cc1c(C(=O)N2CC3C(C2)C3(C)C)cnn1-c1nc2c(c(=O)[nH]1)CCC2 (stereo not drawn) [Q-1048]	200 nM	50 nM	1 nM	–	–	–	–	–
Cc1c(C(=O)N2CCC(C(F)F)CC2)cnn1-c1nc2c(c(=O)[nH]1)CCC2 [Q-1049]	72 nM	25 nM	2 nM	–	–	–	–	–
CCC(C1CCN(C(=O)c2cnn(-c3nn4cccc4c(=O)[nH]3)c2C)CC1)C(F)(F)F (stereo not drawn) [Q-1051]	53 nM	27 nM	1 nM	–	–	–	–	–
CCC(O)(C1CCN(C(=O)c2cnn(-c3nn4cccc4c(=O)[nH]3)c2C)CC1)C(F)(F)F (stereo not drawn) [Q-1052]	44 nM	83 nM	1 nM	–	–	–	–	–
CCC1(C#N)CC12CCN(C(=O)c1cnn(-c3nn4cccc4c(=O)[nH]3)c1C)CC2 (stereo not drawn) [Q-1053]	200 nM	230 nM	1 nM	–	–	–	–	–
Cc1c(C(=O)N2CCN(C(C)C(F)(F)F)CC2)cnn1-c1nc2c(c(=O)[nH]1)CCC2 (stereo not drawn) [Q-1054]	28 nM	60 nM	1 nM	–	–	–	–	–
CCC(C#N)C1(O)CCN(C(=O)c2cnn(-c3nn4cccc4c(=O)[nH]3)c2C)CC1 (stereo not drawn) [Q-1055]	700 nM	160 nM	1 nM	–	–	–	–	–
Cc1c(C(=O)N2CCC(c3nc(-c4ccccc4)cs3)CC2)cnn1-c1nc2c(c(=O)[nH]1)CCC2 [Q-1056]	16 nM	55 nM	3 nM	–	–	–	–	–

Compound	IC50 [1]	IC50 [2]	IC50 [3]	Behavior Significant effect ([4]; 20 mpk QD 3 days)	Behavior Significant effect ([5]; 10 mpk QD 3 days)	Behavior Significant effect ([5]; 9.5 mpk QD 3 days)	Behavior Significant effect ([4]; 15 mpk QD 3 days)	Behavior Significant effect ([4]; 10 mpk QD 3 days)
Cc1c(C(=O)N2CCC3(CC2)CC3C(=O)N2CCCCC2)cnn1-c1nn2cccc2c(=O)[nH]1 (stereo not drawn) [Q-1057]	100 nM	67 nM	1 nM	–	–	–	–	–
Cc1c(C(=O)N2CCC3(CC2)CC3C(=O)N2CCCCC2)cnn1-c1nc2c(c(=O)[nH]1)CCC2 (stereo not drawn) [Q-1058]	93 nM	150 nM	2 nM	–	–	–	–	–
Cc1c(C(=O)N2CCC(F)(C#N)C2)cnn1-c1nn2cccc2c(=O)[nH]1 (stereo not drawn) [Q-1059]	1300 nM	2100 nM	2 nM	–	–	–	–	–
Cc1c(C(=O)N2CCN(CCC(F)(F)F)CC2)cnn1-c1nn2cccc2c(=O)[nH]1 [Q-1060]	200 nM	220 nM	2 nM	–	–	–	–	–
Cc1c(C(=O)N2CCC3(CC2)CC3C(=O)N2CCCC2)cnn1-c1nc2c(c(=O)[nH]1)CCC2 (stereo not drawn) [Q-1061]	400 nM	210 nM	3 nM	–	–	–	–	–
Cc1c(C(=O)N2CCC(C(C#N)CCF)CC2)cnn1-c1nn2cccc2c(=O)[nH]1 (stereo not drawn) [Q-1062]	100 nM	97 nM	1 nM	–	–	–	–	–
Cc1c(C(=O)N2CCC(C(C#N)CCF)CC2)cnn1-c1nc2c(c(=O)[nH]1)CCC2 (stereo not drawn) [Q-1063]	55 nM	120 nM	2 nM	–	–	–	–	–
CCC(=C1CCN(C(=O)c2cnn(-c3nn4cccc4c(=O)[nH]3)c2C)CC1)C(F)(F)F [Q-1064]	200 nM	220 nM	2 nM	–	–	–	–	–
C/C=C(/C1CCN(C(=O)c2cnn(-c3nn4cccc4c(=O)[nH]3)c2C)CC1)C(F)(F)F [Q-1065]	58 nM	74 nM	1 nM	–	–	–	–	–
Cc1c(C(=O)N2CCC(C(O)C(F)(F)F)CC2)cnn1-c1nn2cccc2c(=O)[nH]1 (stereo not drawn) [Q-1066]	300 nM	82 nM	1 nM	–	–	–	–	–
Cc1c(C(=O)N2CCC(C(O)C(F)(F)F)CC2)cnn1-c1nc2c(c(=O)[nH]1)CCC2 (stereo not drawn) [Q-1067]	100 nM	160 nM	2 nM	–	–	–	–	–
Cc1c(C(=O)N2CCC(c3nc(C#N)co3)CC2)cnn1-c1nn2cccc2c(=O)[nH]1 [Q-1127]	–	15 nM	1 nM	yes	–	–	–	–
Cc1c(C(=O)N2CC(c3ccnc(F)c3)C2)cnn1-c1nn2cccc2c(=O)[nH]1 [Q-1133]	–	22 nM	2 nM	–	yes	–	–	–
Cc1c(C(=O)N2CCN(C3CC(F)(F)C3)CC2)cnn1-c1nn2cccc2c(=O)[nH]1 [Q-1169]	–	77 nM	1 nM	–	–	yes	–	–
Cc1c(C(=O)N2CC3CC(C2)N3C2CC2)cnn1-c1nn2cccc2c(=O)[nH]1 [Q-1195]	–	47 nM	2 nM	–	–	–	yes	–
Cc1c(C(=O)N2CCN(C3CCC3(F)F)CC2)nnn1-c1nn2cccc2c(=O)[nH]1 (stereo not drawn) [Q-1204]	–	17 nM	1 nM	–	–	–	–	yes
Cc1c(C(=O)N2CCC2c2ccc(F)nc2)cnn1-c1nn2cccc2c(=O)[nH]1 (stereo not drawn) [Q-1242]	–	32 nM	5 nM	–	–	–	–	yes
Cc1c(C(=O)N2CCN(C3CC(F)(F)C3)CC2)nnn1-c1nn2cccc2c(=O)[nH]1 [Q-1245]	–	26 nM	1 nM	–	–	yes	–	–
